Laboratory results as given in patent US9683253B2, “Method and device for identifying cells” (IMEC, priority 2013, dated 2017).

How the values were obtained:
MCF7 cells = format: cell-based
PBMC = format: cell-based

Substance: SLO
- dose dependence of change in Fc (MCF7 cells): the higher the dose, the bigger the change in the Fc
- recovered Fc versus native Fc (MCF7 cells): increases higher than the native Fc
- recovered Fc versus native Fc (PBMC): drops to a lower value than the native Fc
